For assay [1], the system named is Alpha7. Nature of the assay: PDSP primary binding Alpha7. Particulars: primary binding, 10,000 nM; last figure of the line = mean of the 4 before it. As for the experimental part: (§1) To determine if any off-target receptor-binding effects are present, all the novel ligands were sent to the National Institute of Mental Health (NIMH), Psychoactive Drug Screening Program (PDSP). The ligands were screened over a panel of 47 receptors, ion channels, and transporters to determine any other possible interactions with […]. The hERG-binding was also determined. […] No binding of the test compounds to calcium channels was observed. […] It is necessary to screen the compounds for hERG-binding during the early process of drug discovery. The unintentional binding of many drugs to hERG can cause blockade of hERG K+ channels in the heart, which can cause many side effects including cardiac arrhythmias and sudden death. […] All of the α5 imidazodiazepines were tested for hERG-binding.
(§2) The NIMH PDSP assay protocol book [https://kidbdev.med.unc.edu/databases/PDSP%20Protocols%20II%202013-03-28.pdf accessed on 23 April 2023]. describes the protocols for primary and secondary radio-ligand binding assays. These assays were carried out in a final volume of 125 µL per well in the appropriate binding buffer.
(§3) The binding of a ligand to a receptor, ion channel, or transporter was determined in the […] of 10 µM of the appropriate reference compound. […] Plates were incubated in the dark for 90 min at rt, and the reactions were stopped by vacuum filtration onto 0.3% polyethyleneimine (PEI) soaked 96-well filter mats using a 96-well Filtermateharvester. This was followed by three washes with cold PBS buffer. Radioactivity was then counted on a Microbeta counter. Nonlinear regression was used to analyze the data with N = 6 replicates.

In assay [2] the target is T1, M5 (Homo sapiens, UniProt P08912).
T1 construct: purchased NIMH Psychoactive Drug Screening Program (PDSP)
T1 sequence (P08912 1-532): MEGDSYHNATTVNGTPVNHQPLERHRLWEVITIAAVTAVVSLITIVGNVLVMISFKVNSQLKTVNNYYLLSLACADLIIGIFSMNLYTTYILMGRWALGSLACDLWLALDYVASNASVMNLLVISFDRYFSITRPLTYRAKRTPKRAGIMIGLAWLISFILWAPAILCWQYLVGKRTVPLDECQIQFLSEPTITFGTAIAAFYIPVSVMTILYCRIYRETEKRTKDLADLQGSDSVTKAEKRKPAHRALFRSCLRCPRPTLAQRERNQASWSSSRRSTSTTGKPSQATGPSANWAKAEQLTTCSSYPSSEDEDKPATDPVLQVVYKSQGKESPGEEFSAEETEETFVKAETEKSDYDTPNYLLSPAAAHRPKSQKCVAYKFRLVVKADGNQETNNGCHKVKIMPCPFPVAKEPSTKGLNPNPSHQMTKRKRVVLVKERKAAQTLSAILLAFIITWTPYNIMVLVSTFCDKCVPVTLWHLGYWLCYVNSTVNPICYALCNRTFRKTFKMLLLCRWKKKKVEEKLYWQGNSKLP
Nature of the assay: PDSP primary binding M5. Particulars: primary binding, 10,000 nM; last figure of the line = mean of the 4 before it; read-out: M5, PDSP raw data, mean. On the procedure:
as §1, §2, §3

Assay [3] addresses T2, 5-HT6 (Homo sapiens, UniProt P50406).
T2 construct: purchased NIMH Psychoactive Drug Screening Program (PDSP)
Nature of the assay: PDSP primary binding 5-HT6. Particulars: 1.5 h; primary binding, 10,000 nM; last figure of the line = mean of the 4 before it; read-out: 5-HT6, PDSP raw data, mean. As for the experimental part: as §1, §2, §3

The target in assay [4] is T3, 5-HT2A (Homo sapiens, UniProt P28223).
T3 construct: purchased NIMH Psychoactive Drug Screening Program (PDSP)
Nature of the assay: PDSP primary binding 5-HT2A. Particulars: 1.5 h; primary binding, 10,000 nM; last figure of the line = mean of the 4 before it; read-out: 5-HT2A, PDSP raw data, mean. On the procedure:
as §1, §2, §3

Assay [5] deals with T4, 5-HT4 (Homo sapiens, UniProt Q13639).
T4 construct: purchased NIMH Psychoactive Drug Screening Program (PDSP)
Nature of the assay: PDSP primary binding 5-HT4. Particulars: 1.5 h; primary binding, 10,000 nM; last figure of the line = mean of the 4 before it; read-out: 5-HT4, PDSP raw data, mean. As for the experimental part: as §1, §2, §3

Assay [6] concerns the target T5, 5-HT1A (Homo sapiens, UniProt P08908).
T5 construct: purchased NIMH Psychoactive Drug Screening Program (PDSP)
T5 sequence (P08908 1-422): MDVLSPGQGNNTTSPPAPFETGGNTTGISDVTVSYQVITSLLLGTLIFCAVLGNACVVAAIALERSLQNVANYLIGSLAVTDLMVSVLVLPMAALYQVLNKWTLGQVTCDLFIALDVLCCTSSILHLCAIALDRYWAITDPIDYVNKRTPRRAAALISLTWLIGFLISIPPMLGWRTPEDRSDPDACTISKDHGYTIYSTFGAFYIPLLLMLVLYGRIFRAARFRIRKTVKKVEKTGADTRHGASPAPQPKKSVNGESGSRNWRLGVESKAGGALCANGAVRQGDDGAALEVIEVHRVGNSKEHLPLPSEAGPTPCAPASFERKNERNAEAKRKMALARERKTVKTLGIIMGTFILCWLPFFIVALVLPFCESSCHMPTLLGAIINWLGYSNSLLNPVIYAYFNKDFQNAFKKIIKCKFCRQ
Nature of the assay: PDSP primary binding 5-HT1A. Particulars: 1.5 h; primary binding, 10,000 nM; last figure of the line = mean of the 4 before it; read-out: 5-HT1A, PDSP raw data, mean. On the procedure:
as §1, §2, §3

Assay [7] deals with T6, V1B (Homo sapiens, UniProt P47901).
T6 construct: purchased NIMH Psychoactive Drug Screening Program (PDSP)
T6 sequence (P47901 1-424): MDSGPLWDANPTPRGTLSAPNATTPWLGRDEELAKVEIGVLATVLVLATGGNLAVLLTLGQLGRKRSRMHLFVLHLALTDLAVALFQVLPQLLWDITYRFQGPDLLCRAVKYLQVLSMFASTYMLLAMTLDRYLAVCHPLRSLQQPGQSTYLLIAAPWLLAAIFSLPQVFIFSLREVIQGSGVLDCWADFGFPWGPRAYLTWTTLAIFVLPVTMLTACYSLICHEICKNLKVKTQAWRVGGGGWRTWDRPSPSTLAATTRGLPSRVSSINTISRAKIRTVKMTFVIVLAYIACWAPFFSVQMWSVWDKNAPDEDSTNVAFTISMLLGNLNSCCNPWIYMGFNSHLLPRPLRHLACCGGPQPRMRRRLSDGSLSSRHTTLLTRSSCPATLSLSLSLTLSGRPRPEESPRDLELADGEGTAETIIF
Nature of the assay: PDSP primary binding V1B. Particulars: primary binding, 10,000 nM; last figure of the line = mean of the 4 before it; read-out: V1B, PDSP raw data, mean. On the procedure:
as §1, §2, §3

Assay [8] has as its target T7, V2 (Homo sapiens, UniProt P30518).
T7 construct: purchased NIMH Psychoactive Drug Screening Program (PDSP)
Nature of the assay: PDSP primary binding V2. Particulars: primary binding, 10,000 nM; last figure of the line = mean of the 4 before it; read-out: V2, PDSP raw data, mean. On the procedure: as §1, §2, §3

T3 sequence (P28223 whole entry): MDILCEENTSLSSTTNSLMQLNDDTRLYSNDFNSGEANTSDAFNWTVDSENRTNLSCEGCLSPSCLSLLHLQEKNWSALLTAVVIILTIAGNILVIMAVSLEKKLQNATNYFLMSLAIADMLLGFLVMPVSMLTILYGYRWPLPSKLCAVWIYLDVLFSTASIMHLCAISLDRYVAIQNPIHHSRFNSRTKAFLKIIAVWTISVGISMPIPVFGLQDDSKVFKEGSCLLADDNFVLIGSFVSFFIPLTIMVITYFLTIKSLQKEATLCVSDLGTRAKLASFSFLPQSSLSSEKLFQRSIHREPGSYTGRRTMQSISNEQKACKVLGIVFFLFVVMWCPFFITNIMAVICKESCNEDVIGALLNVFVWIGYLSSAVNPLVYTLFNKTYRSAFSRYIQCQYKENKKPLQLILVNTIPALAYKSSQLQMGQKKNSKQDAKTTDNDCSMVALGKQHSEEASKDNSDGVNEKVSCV
T4 sequence (Q13639 whole entry): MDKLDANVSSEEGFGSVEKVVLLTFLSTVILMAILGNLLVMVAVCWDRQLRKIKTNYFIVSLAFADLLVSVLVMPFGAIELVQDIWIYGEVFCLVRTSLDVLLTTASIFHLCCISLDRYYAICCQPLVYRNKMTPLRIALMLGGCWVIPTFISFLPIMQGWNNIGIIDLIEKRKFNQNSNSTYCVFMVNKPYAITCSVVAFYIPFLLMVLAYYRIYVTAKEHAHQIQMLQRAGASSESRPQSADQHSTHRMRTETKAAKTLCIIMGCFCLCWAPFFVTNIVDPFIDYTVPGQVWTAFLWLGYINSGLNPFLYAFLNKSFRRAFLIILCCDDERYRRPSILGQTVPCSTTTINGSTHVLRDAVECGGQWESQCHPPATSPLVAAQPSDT
T2 sequence (P50406 whole entry): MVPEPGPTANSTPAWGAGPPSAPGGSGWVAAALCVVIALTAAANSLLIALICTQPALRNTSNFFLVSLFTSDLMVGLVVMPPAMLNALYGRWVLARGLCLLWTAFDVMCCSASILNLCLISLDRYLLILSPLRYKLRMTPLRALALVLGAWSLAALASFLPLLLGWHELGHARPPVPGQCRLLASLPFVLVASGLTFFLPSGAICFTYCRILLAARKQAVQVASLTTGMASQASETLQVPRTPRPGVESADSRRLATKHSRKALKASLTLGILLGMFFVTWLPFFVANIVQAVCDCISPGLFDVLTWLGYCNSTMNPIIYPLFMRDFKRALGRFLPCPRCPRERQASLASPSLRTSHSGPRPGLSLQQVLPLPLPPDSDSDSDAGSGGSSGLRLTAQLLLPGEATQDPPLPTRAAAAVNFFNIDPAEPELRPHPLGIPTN
T7 sequence (P30518 whole entry): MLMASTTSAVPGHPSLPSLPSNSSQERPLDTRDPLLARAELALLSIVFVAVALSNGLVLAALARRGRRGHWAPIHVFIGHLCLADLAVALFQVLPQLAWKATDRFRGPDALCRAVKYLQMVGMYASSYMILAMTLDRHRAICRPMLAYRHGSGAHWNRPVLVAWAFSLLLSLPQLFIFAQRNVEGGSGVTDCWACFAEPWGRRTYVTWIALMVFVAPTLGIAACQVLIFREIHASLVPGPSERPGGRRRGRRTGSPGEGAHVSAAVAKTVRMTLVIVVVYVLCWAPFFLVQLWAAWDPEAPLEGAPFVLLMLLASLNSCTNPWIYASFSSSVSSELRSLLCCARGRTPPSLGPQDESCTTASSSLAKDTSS

For the compound `CCc1noc(-c2ncn3c2[C@@H](C)N=C(c2ccccc2F)c2cc(C4CC4)ccc2-3)n1` [Compound 46, (R)-5-(8-Cyclopropyl-6-(2′-fluorophenyl)-4-methyl-4H-benzo[f]imidazo[1,5-a][1,4]diazepin-3-yl)-3-ethyl-1,2,4-oxadiazole], the “Alpha7, PDSP raw data, mean” value in assay [1] was determined as 4.57%. Besides, the inhibition at 10 µM in assay [2] was determined as 5.69%; in assay [3], 71.5%; in assay [4], 23.6%; in assay [5], 3.05%; in assay [6] it was 17.8%; in assay [7], 2.67%. Besides, the inhibition at 10 µM in assay [8] was found to be 48.4%.

As for `C#Cc1ccc2c(c1)C(c1ccccc1Cl)=N[C@H](C)c1c(C(=O)N(C)CC)ncn1-2` [Compound 29], the “Alpha7, PDSP raw data, mean” value in assay [1] was -2.05%. Also, the inhibition at 10 µM in assay [2] was -17.5%; in assay [3] it was 14.9%; in assay [4] it was -3.89%; in assay [5], -6.11%; in assay [6], -2.7%; in assay [7] it was 11%. Moreover, the inhibition at 10 µM in assay [8] was 21.9%.

On to `C#Cc1ccc2c(c1)C(c1ccccn1)=N[C@@H](C)c1c(C(=O)NC)ncn1-2` [Compound 23, (S)-8-Ethynyl-N,4-dimethyl-6-(pyridin-2′-yl)-4H-benzo[f]imidazo[1,5-a][1,4]diazepine-3-carboxamide], for which, in assay [1], the “Alpha7, PDSP raw data, mean” value is -5.28%. Moreover, the inhibition at 10 µM in assay [2] is -13.6%; in assay [3], 18.1%; in assay [4], -0.6%; in assay [5], -1.06%; in assay [6] it was 2.23%; in assay [7], -4.18%. Further, the inhibition at 10 µM in assay [8] is 10.2%.

With `C#Cc1ccc2c(c1)C(c1ccccc1Cl)=N[C@H](C)c1c(C(=O)NC)ncn1-2` [Compound 21, (R)-6-(2′-Chlorophenyl)-8-ethynyl-N,4-dimethyl-4H-benzo[f]imidazo[1,5-a][1,4]diazepine-3-carboxamide], in assay [1], the “Alpha7, PDSP raw data, mean” value is on record as -10.85%. The inhibition at 10 µM in assay [2] was -8.03%; in assay [3], -8.24%; in assay [4], -7.9%; in assay [5], 4%; in assay [6], 4.88%; in assay [7], 45.8%. In addition, the inhibition at 10 µM in assay [8] is 43%.

As to `CCc1noc(-c2ncn3c2[C@@H](C)N=C(c2ccccc2F)c2cc(-c4ccccc4)ccc2-3)n1` [Compound 35, (R)-3-Ethyl-5-(6-(2′-fluorophenyl)-4-methyl-8-phenyl-4H-benzo[f]imidazo[1,5-a][1,4]diazepin-3-yl)-1,2,4-oxadiazole], in assay [1], the “Alpha7, PDSP raw data, mean” value is -23.18%. The inhibition at 10 µM in assay [2] was -7.39%; in assay [3] it was 10.3%; in assay [4], 32.3%; in assay [5] it was -0.48%; in assay [6], 28.9%; in assay [7], 21%. The inhibition at 10 µM in assay [8] came to 37.4%.

For `C#Cc1ccc2c(c1)C(c1ccccn1)=N[C@@H](C)c1c(C(=O)N(C)C)ncn1-2` [Compound 31, (S)-8-Ethynyl-N,N,4-trimethyl-6-(pyridin-2′-yl)-4H-benzo[f]imidazo[1,5-a][1,4]diazepine-3-carboxamide], the “Alpha7, PDSP raw data, mean” value in assay [1] was -3.44%. Besides, the inhibition at 10 µM is -11.8% in assay [2]; 18.1% in assay [3]; -13.1% in assay [4]; -0.81% in assay [5]; -0.48% in assay [6]; 24.3% in assay [7]. In addition, in assay [8], the inhibition at 10 µM was found to be 15.4%.

As for `C#Cc1ccc2c(c1)C(c1ccccc1F)=N[C@H](C)c1c(C(=S)N(C)C)ncn1-2` [Compound 33, (R)-8-Ethynyl-6-(2′-fluorophenyl)-N,N,4-trimethyl-4H-benzo[f]imidazo[1,5-a][1,4]diazepine-3-carbothioamide], the “Alpha7, PDSP raw data, mean” value in assay [1] was -18.33%. Also, the inhibition at 10 µM was -0.76% in assay [2]; 24.6% in assay [3]; 10.7% in assay [4]; -14.4% in assay [5]; 2.37% in assay [6]; 1.4% in assay [7]. The inhibition at 10 µM in assay [8] is 19.7%.

In the case of `C[C@H]1N=C(c2ccccc2F)c2cc(Cl)ccc2-n2cnc(-c3nc(C4CC4)no3)c21` [Compound 38, (R)-5-(8-Chloro-6-(2′-fluorophenyl)-4-methyl-4H-benzo[f]imidazo[1,5-a][1,4]diazepin-3-yl)-3-cyclopropyl-1,2,4-oxadiazole], the “Alpha7, PDSP raw data, mean” value in assay [1] turned out to be 11.55%. Further, the inhibition at 10 µM in assay [2] is -5.18%; in assay [3] it was -6.37%; in assay [4] it was 11.6%; in assay [5] it was 38.7%; in assay [6], -1.57%; in assay [7], -7.2%. In addition, the inhibition at 10 µM in assay [8] was 5.48%.

`C[C@H]1N=C(c2ccccc2F)c2cc(-c3ccccc3)ccc2-n2cnc(C(=O)N(C)C)c21` [Compound 5, (R)-6-(2′-Fluorophenyl)-N,N,4-trimethyl-8-phenyl-4H-benzo[f]imidazo[1,5-a][1,4]diazepine-3-carboxamide]: the “Alpha7, PDSP raw data, mean” value in assay [1] is given as -18.33%. In addition, the inhibition at 10 µM in assay [2] is -0.76%; in assay [3], 24.6%; in assay [4], 10.7%; in assay [5] it was -14.4%; in assay [6], 2.37%; in assay [7], 1.4%. For the same compound, the inhibition at 10 µM in assay [8] was found to be 19.7%.

The values are drawn from publication PMC10303271, “Synthesis and Receptor Binding Studies of α5 GABAAR Selective Novel Imidazodiazepines Targeted for Psychiatric and Cognitive Disorders” (Molecules, 2023).
